Measured values from US20240391931A1 (Bristol-Myers Squibb Company, priority 2021, published 2024).
Structures can show the parent of a compound that is named as a salt.

What was measured:
[1] = target: T1, HER2 wildtype (WT) protein (Homo sapiens, UniProt P04626); assay: HER2 signaling (pHER2 Tyr1248/total HER2 MSD) in N87 cells; type: cell-based; settings: 1.5 hr compound, 1% FBS
T1 construct: BT474 and N87 cell lines which endogenously overexpress the HER2 wildtype (WT) protein; endogenous in cells; host or cells: BT474, N87
T1 sequence (P04626 23-1255): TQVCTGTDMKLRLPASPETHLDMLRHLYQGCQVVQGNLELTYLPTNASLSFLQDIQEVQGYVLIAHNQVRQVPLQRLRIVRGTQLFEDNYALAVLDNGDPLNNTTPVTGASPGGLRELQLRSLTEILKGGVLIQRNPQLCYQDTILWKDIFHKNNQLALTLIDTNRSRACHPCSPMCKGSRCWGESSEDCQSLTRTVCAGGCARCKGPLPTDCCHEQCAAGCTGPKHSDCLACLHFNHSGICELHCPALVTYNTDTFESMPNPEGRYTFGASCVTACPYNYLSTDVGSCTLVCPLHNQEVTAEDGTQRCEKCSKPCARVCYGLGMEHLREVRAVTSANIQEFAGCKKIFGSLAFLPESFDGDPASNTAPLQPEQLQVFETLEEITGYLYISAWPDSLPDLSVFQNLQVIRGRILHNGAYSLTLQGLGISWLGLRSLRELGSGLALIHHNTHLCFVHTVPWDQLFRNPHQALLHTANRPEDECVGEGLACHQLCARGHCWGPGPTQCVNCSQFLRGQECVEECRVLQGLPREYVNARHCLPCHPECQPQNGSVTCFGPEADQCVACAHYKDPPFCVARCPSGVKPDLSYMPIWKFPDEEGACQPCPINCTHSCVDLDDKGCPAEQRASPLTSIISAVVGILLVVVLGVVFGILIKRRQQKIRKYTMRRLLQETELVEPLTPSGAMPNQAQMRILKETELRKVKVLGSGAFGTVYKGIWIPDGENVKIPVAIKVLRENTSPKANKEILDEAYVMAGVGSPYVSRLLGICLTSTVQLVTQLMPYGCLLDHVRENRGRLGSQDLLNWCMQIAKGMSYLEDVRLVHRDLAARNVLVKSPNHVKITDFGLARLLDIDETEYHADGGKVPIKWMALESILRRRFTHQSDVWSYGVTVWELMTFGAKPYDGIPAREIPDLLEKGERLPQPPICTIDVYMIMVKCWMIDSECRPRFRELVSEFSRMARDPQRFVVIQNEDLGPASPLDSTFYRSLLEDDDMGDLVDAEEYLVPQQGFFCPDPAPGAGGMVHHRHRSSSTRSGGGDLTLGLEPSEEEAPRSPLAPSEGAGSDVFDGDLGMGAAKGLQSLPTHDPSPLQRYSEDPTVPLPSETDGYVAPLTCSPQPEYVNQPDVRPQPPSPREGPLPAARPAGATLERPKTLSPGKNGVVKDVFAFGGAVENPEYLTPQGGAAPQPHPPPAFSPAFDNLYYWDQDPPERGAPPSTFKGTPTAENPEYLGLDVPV
Experimental: In addition to the engineered cell lines, the following cell lines were used: BT474 (human breast carcinoma), N87 (human gastric carcinoma), NCI-H1781 (human lung adenocarcinoma), and A431 (human epidermoid carcinoma); all cell lines were obtained from the American Type Culture Collection (ATCC, Manassas, VA). NCI-H1781 were grown in complete RPMI 1640 (Life Technologies, Carlsbad, CA) supplemented with 15% fetal bovine serum (FBS, Life Technologies, Carlsbad, CA) and 1% Penicillin-Streptomycin (P/S, Life Technologies, Carlsbad, CA). N87 cells were grown in complete RPMI 1640 supplemented with 10% FBS and 1% P/S. BT474 and A431 cells were grown in DMEM (Life Technologies, Carlsbad, CA) supplemented with 10% FBS and 1% P/S. All cells were maintained and propagated in a humidified 5% CO2 incubator at 37° C.
HER2 signaling was assessed in BT474 and N87 cell lines which endogenously overexpress the HER2 wildtype (WT) protein, in NCI-H1781 cells which endogenously expresses a HER2 mutant protein containing a VC insertion in the kinase domain (HER2VC or G776delinsVC), and in engineered cell lines transduced to express the Her2 mutant protein containing the YVMA insertion (Hek293-HER2YVMA and BEAS2B-HER2YVMA).
BT474, N87, and NCI-H1781 were plated in 96-well tissue-culture treated plates (Corning Costar, Sigma-Aldrich) in full media and incubated overnight. Hek293-HER2YVMA and BEAS2B-HER2YVMA cells were plated in 96-well poly-D-lysine treated plates (BD Bioscience, San Jose, CA). For treatment with test compounds, the media was replaced with corresponding low serum media (1% FBS) containing test compound at 1.1, 0.37, 0.12, 0.041, 0.014, 0.005, 0.0014, 0.0005 μM or DMSO control (0.1%). Cells were incubated with compound for 1.5 hr at 37° C. After compound treatment, the media was removed and cells were lysed for 30 min on ice in complete MSD lysis buffer (prepared using MSD base lysis buffer (Meso-Scale Discovery) supplemented with cOmplete, EDTA-free Protease inhibitor cocktail (Roche), Phosphatase Inhibitor Cocktails 2 and 3 (Sigma-Aldrich), and 1 mM PMSF (Sigma-Aldrich)). Lysates were stored at −70° C. until further analysis.
HER2 signaling was evaluated using phospho (Tyr1248)/total ErbB2 whole cell lysate MSD plates (Meso-Scale Discovery, Gaithersburg, MD). The phospho HER2 signal was normalized to total HER2 for each sample; results are reported as % DMSO control. The normalized data was fitted using a sigmoidal curve analysis program (Graph Pad Prism version 6) with variable Hill slope to determine EC50 values.
The HER2 signaling results are provided in Table 4, under columns titled “BT474-pHER2 EC50”, “N87-pHER2 EC50”, and “NCI-H1781-pHER2 EC50”. Hek293-HER2YVMA ins fall under the heading “HEKYVMA-pHER2 EC50”, Ba/F3 HER2YVMA fall under the heading “Ba/F3 YVMA-pHER2 EC50” and BEAS2B-HER2YVMA fall under the heading “BEAS2B YVMA-pHER2 EC50”.

[2] = target: T2, HER2 WT (Homo sapiens, UniProt P04626); assay: Enzymatic assay HER2 WT (method a); type: biochemical; settings: [HER2 WT]=12.5 nM, [ATP]=25 μM, [Peptide 22]=1 μM
T2 construct: purchased ProQinase, Freiburg, Germany ERBB2 0108-0000-1
T2 sequence (P04626 23-1255): as above
Summary of the method: (§1)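 Microfluidic mobility-shift kinase assay with Peptide 22 (1 μM) in HEPES pH 7.5, MnCl2, MgCl2, Tween 20, TCEP. HER2 WT 12.5 nM and HER2 YVMA 5 nM each used 25 μM ATP; EGFR WT 2 nM used 1 mM ATP. IC50 came from initial-velocity (0–3600 s) percent inhibition, fitted to a variable-slope model.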

[3] = target: HER2YVMA (Homo sapiens, UniProt P04626, INS775YVMA); assay: Enzymatic assay HER2YVMA (method b); type: biochemical; parameters: purchased Viva biotech, Shanghai, China custom purification; settings: [HER2YVMA]=5 nM, [ATP]=25 μM, [Peptide 22]=1 μM
Sequence of HER2YVMA (P04626 with tags, fused parts or gaps INS775YVMA): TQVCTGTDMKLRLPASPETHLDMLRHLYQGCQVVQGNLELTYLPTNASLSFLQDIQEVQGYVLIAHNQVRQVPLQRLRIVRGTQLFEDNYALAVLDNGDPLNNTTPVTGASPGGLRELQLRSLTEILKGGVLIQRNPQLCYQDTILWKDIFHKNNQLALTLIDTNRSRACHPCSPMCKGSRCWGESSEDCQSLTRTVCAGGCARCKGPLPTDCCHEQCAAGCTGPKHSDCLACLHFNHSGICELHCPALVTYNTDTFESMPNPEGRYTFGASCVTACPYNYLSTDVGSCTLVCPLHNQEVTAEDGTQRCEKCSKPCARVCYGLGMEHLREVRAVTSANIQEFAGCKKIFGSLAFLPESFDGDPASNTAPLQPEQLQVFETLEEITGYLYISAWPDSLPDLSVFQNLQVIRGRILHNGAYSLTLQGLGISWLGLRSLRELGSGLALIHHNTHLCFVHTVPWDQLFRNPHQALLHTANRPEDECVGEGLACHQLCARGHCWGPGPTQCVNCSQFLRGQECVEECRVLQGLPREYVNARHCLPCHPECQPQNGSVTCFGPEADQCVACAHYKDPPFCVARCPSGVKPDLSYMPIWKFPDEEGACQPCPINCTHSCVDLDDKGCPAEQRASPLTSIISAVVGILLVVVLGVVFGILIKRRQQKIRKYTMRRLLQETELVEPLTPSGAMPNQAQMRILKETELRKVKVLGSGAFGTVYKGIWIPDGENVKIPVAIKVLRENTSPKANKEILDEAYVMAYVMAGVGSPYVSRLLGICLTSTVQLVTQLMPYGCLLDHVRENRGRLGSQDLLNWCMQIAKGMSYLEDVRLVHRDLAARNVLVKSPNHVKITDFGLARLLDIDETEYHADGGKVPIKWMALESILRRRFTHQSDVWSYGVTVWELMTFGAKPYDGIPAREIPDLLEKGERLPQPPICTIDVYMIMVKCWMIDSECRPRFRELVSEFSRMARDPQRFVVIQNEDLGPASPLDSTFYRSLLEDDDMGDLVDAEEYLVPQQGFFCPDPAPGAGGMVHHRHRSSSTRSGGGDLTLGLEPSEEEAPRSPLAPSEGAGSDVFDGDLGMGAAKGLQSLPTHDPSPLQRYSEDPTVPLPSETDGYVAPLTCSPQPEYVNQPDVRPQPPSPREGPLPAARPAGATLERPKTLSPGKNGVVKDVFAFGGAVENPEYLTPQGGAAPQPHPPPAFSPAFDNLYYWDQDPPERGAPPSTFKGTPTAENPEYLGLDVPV
Summary of the method: as §1

[4] = target: T3, EGFR WT (Homo sapiens, UniProt P00533); assay: Enzymatic assay EGFR WT (method c); type: biochemical; settings: [EGFR WT]=2 nM, [ATP]=1 mM, [Peptide 22]=1 μM
T3 construct: purchased Thermo Fisher, Carlsbad, CA ERBB1 PR7295B
T3 sequence (P00533 25-1210): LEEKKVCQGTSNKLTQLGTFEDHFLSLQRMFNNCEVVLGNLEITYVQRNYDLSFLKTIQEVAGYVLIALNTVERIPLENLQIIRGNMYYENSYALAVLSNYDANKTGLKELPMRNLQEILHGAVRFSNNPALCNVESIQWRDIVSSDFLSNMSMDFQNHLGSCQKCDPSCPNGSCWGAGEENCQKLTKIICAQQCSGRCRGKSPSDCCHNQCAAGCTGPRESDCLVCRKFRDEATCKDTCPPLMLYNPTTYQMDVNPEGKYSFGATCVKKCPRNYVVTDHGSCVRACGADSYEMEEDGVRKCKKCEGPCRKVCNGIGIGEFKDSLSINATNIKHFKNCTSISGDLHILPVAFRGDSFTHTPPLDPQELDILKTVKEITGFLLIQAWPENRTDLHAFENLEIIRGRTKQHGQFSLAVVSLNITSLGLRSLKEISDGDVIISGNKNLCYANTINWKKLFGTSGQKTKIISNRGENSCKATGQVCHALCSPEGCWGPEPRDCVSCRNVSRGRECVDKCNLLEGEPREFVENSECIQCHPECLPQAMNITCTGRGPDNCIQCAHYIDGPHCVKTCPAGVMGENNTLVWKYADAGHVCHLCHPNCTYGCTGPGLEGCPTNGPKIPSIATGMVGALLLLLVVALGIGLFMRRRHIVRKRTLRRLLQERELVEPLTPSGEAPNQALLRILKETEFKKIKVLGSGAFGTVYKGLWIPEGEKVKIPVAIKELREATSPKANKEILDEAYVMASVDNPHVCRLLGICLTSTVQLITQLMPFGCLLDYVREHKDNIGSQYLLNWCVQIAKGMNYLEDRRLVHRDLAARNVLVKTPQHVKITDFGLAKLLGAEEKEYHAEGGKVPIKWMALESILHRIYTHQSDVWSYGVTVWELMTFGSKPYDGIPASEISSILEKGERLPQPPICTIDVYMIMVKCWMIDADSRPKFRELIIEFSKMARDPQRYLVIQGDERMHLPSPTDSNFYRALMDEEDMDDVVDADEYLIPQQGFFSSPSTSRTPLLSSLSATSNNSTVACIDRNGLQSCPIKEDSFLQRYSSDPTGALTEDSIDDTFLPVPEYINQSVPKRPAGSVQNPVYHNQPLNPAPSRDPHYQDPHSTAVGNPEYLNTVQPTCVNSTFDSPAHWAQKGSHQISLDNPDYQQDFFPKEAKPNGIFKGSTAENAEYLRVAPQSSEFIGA
Summary of the method: as §1

| EC50 [1] | IC50 [2] | IC50 [3] | IC50 [4] | Structure (SMILES) |
| --- | --- | --- | --- | --- |
| < 0.1 µM | 0.1 to 1 µM | 0.1 to 1 µM | > 10 µM | C=CC(=O)N1[C@H](C)Cc2c(sc3ncnc(Nc4ccc(Oc5ccc(C)nc5)c(C)c4)c23)[C@H]1C (racemic) [Compound 166, 1-(6,8-trans-dimethyl-4-((3-methyl-4-((6-methylpyridin-3-yl)oxy)phenyl)amino)-5,8-dihydropyrido[4′,3′:4,5]thieno[2,3-d]pyrimidin-7(6H)-yl)prop-2-en-1-one] |
| < 0.1 µM | < 0.1 µM | < 0.1 µM | > 10 µM | Cc1ccc(Oc2ccc(Nc3ncnc4sc5c(c34)C(C)N(C(=O)C=CCN(C)C)C5)cc2C)cn1 (single isomer, unassigned) [Compound 147] |
| < 0.1 µM | 0.1 to 1 µM | 0.1 to 1 µM | > 10 µM | COc1ccc(Oc2ccc(Nc3ncnc4sc5c(c34)C(C)CN(C(=O)C=CCN(C)C)C5)cc2C)cn1 (single isomer, unassigned) [Compound 159] |
| < 0.1 µM | < 0.1 µM | < 0.1 µM | > 10 µM | COc1ccc(Oc2ccc(Nc3ncnc4sc5c(c34)C(C)CN(C(=O)C=CCN(C)C)C5)cc2C)cn1 (single isomer, unassigned) [Compound 160] |
| < 0.1 µM | < 0.1 µM | < 0.1 µM | > 10 µM | Cc1ccc(Oc2ccc(Nc3ncnc4sc5c(c34)CC(C)N(C(=O)C=CCN(C)C)C5C)cc2C)cn1 (single isomer, unassigned) [Compound 161] |
| 0.35 to 1 µM | 1 to 10 µM | 1 to 10 µM | > 10 µM | Cc1ccc(Oc2ccc(Nc3ncnc4sc5c(c34)CC(C)N(C(=O)C=CCN(C)C)C5C)cc2C)cn1 (single isomer, unassigned) [Compound 162] |
| < 0.1 µM | < 0.1 µM | < 0.1 µM | > 10 µM | Cc1ccc(Oc2ccc(Nc3ncnc4sc5c(c34)CN(C(=O)C=CCN(C)C)C5C)cc2C)cn1 (single isomer, unassigned) [Compound 169] |
| < 0.1 µM | < 0.1 µM | < 0.1 µM | > 10 µM | Cc1ccc(Oc2ccc(Nc3ncnc4sc5c(c34)C(C)CN(C(=O)C=CCN3CCOCC3)C5)cc2C)cn1 (single isomer, unassigned) [Compound 177] |
| < 0.1 µM | < 0.1 µM | 0.1 to 1 µM | > 10 µM | Cc1cc(Nc2ncnc3sc4c(c23)CCN(C(=O)/C=C/CN2CCOCC2)C4)ccc1Oc1ccc2ncnn2c1 [Compound 12] |
| < 0.1 µM | < 0.1 µM | < 0.1 µM | > 10 µM | Cc1ccc(Oc2ccc(Nc3ncnc4sc5c(c34)CCN(C(=O)/C=C/CN3CC4CCC3C4)C5)cc2C)cn1 (stereo not drawn) [Compound 14] |
| < 0.1 µM | 0.1 to 1 µM | < 0.1 µM | > 10 µM | COc1ccc(Oc2ccc(Nc3ncnc4sc5c(c34)CN(C(=O)/C=C/CN(C)C)C5)cc2C)cn1 [Compound 128, (E)-4-(dimethylamino)-1-(4-((4-((6-methoxypyridin-3-yl)oxy)-3-methylphenyl)amino)-5,7-dihydro-6H-pyrrolo[3′,4′:4,5]thieno[2,3-d]pyrimidin-6-yl)but-2-en-1-one] |
| < 0.1 µM | < 0.1 µM | < 0.1 µM | > 10 µM | Cc1ccc(Oc2ccc(Nc3ncnc4sc5c(c34)CN(C(=O)/C=C/CN(C)C)C5)cc2Cl)cn1 [Compound 129, (E)-1-(4-((3-Chloro-4-((6-methylpyridin-3-yl)oxy)phenyl)amino)-5H-pyrrolo[3′,4′:4,5]thieno[2,3-d]pyrimidin-6(7H)-yl)-4-(dimethylamino)but-2-en-1-one] |

| Structure (SMILES) | EC50 [1] | IC50 [2] | IC50 [3] | IC50 [4] |
| --- | --- | --- | --- | --- |
| Cc1ccc(Oc2ccc(Nc3ncnc4sc5c(c34)CCN(C(=O)/C=C/CN(C)C)C5)cc2C)cn1 [Compound 8, (E)-4-(Dimethylamino)-1-(4-((3-methyl-4-((6-methylpyridin-3-yl)oxy)phenyl)amino)-5,6-dihydropyrido[4′,3′:4,5]thieno[2,3-d]pyrimidin-7(8H)-yl)but-2-en-1-one] | < 0.1 µM | < 0.1 µM | < 0.1 µM | 1 to 10 µM |
| Cc1ccc(Oc2ccc(Nc3ncnc4sc5c(c34)CCN(C(=O)/C=C/CN3CC4CC(C3)O4)C5)cc2C)cn1 [Compound 15] | < 0.1 µM | < 0.1 µM | 0.1 to 1 µM | > 10 µM |
| Cc1ccc(Oc2ccc(Nc3ncnc4sc5c(c34)CCN(C(=O)/C=C/CN3CC4CCC(C4)C3)C5)cc2C)cn1 [Compound 16, (E)-4-(3-azabicyclo[3.2.1]octan-3-yl)-1-(4-((3-methyl-4-((6-methylpyridin-3-yl)oxy)phenyl)amino)-5,8-dihydropyrido[4′,3′:4,5]thieno[2,3-d]pyrimidin-7(6H)-yl)but-2-en-1-one benzenesulfonate salt] | < 0.1 µM | < 0.1 µM | < 0.1 µM |  |
| Cc1ccc(Oc2ccc(Nc3ncnc4sc5c(c34)CCN(C(=O)/C=C/CN3CCOCC3)C5)cc2C)cn1 [Compound 17, (E)-1-(4-((3-Methyl-4-((6-methylpyridin-3-yl)oxy)phenyl)amino)-5,6-dihydropyrido[4′,3′:4,5]thieno[2,3-d]pyrimidin-7(8H)-yl)-4-morpholinobut-2-en-1-one] | < 0.1 µM | < 0.1 µM | < 0.1 µM | > 10 µM |
